How the values were obtained:
[1] = tested on: ECHORC (Watergrass (Calif.)); experiment: Postemergence weed control under flooded paddy conditions; format: in vivo, Echinochloa oryzoides; settings: postemergence weeds, rated 3 to 4 weeks after treatment
Outline: (§1)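 Herbicidal effect is judged by eye on a 0–9 scale versus control, 3–4 weeks after dosing. Dosing is into flood water kept 1.5–3 cm over the soil, at about 0.0313–0.500 kg/ha in aqueous/acetone 50/50 v/v, on 3–5 cm weeds and 1.5–2.5-leaf rice seedlings.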

SETVI (Foxtail, Green) = experiment: Preemergence herbicidal evaluation; format: in vivo, Setaria viridis; settings: rated 4-5 weeks after treatment
Outline: (§2)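 Visual 0-9 rating vs control (stand, vigor, malformation, size, chlorosis, overall appearance), scored 4-5 wk after spraying. Seeded soil cups were treated preemergence with compound in aqueous acetone, ~0.0156-0.500 kg/ha equivalent.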

ECHCG (Barnyardgrass) = experiment: Preemergence herbicidal evaluation; format: in vivo, Echinochloa crus-galli; settings: rated 4-5 weeks after treatment
Outline: as §2

[2] = tested on: ECHORC (Watergrass (Calif.)); experiment: Preemergence weed control under flooded paddy conditions; format: in vivo, Echinochloa oryzoides; settings: rated 3-4 weeks after treatment
Outline: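 Herbicidal effect is scored visually on a 0-9 scale against an untreated control, three to four weeks after compounds are pipetted into the flood water (1.5 to 3 cm deep) over seeds planted in silt loam at 0.5 cm depth. Rates: about 0.0313 to 0.500 kg/ha.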

[3] = tested on: TRZAWR (Wheat, Winter, cv Riband); experiment: Postemergence herbicidal evaluation; format: in vivo, Triticum aestivum; settings: postemergence
Outline: (§3)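 Each compound, dispersed in an acetone/water mix (50/50) carrying 0.5% TWEEN 20, is nozzle-sprayed at 40 psi on approximately two-week-old seedlings at about 0.0156–0.500 kg/ha. Plants are assessed 4–5 weeks afterward on a 0–9 scale relative to control; duplicate tests are averaged.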

ORYSAT (Rice, Tebonnet) = experiment: Preemergence herbicidal evaluation; format: in vivo, Oryza sativa, (L.) Tebonnet; settings: rated 4-5 weeks after treatment
Outline: as §2

[4] = tested on: IPOHE (Morningglory, Ivyleaf); experiment: Postemergence herbicidal evaluation; format: in vivo, Ipomoea hederacea; settings: postemergence
Outline: as §3

CYPIR (Rice Flatsedge) = experiment: Postemergence weed control under flooded paddy conditions; format: in vivo, Cyperus iria; settings: postemergence weeds, rated 3 to 4 weeks after treatment
Outline: as §1

ABUTH (Velvetleaf) = experiment: Postemergence herbicidal evaluation; format: in vivo, Abutilon theophrasti; settings: postemergence
Outline: as §3

[5] = tested on: CHEAL (Lambsquarters, Common); experiment: Preemergence herbicidal evaluation; format: in vivo, Chenopodium album; settings: rated 4-5 weeks after treatment
Outline: as §2

[6] = tested on: TRZAWR (Wheat, Winter, cv Riband); experiment: Preemergence herbicidal evaluation; format: in vivo, Triticum aestivum; settings: rated 4-5 weeks after treatment
Outline: as §2

[7] = tested on: IPOHE (Morningglory, Ivyleaf); experiment: Preemergence herbicidal evaluation; format: in vivo, Ipomoea hederacea; settings: rated 4-5 weeks after treatment
Outline: as §2

CCOC(=O)[C@H](C)N1C(=O)CSC1=Nc1cc(-n2c(=O)cc(C(F)(F)F)n(C)c2=O)c(F)cc1Cl [Compound 76, Ethyl 2-{{2-chloro-5-[3,6-dihydro-3-methyl-2,6-dioxo-4-(trifluoromethyl)-1(2H)-pyrimidinyl]-4-fluorophenyl}imino}-α-methyl-4-oxo-3-thiazolidineacetate, L-]
Herbicidal rating ECHORC ([1]; Rate 0.0313 kg/ha): 4.0 | Herbicidal rating ECHORC ([1]; Rate 0.0625 kg/ha): 7.0 | Herbicidal rating ECHORC ([1]; Rate 0.1250 kg/ha): 9.0 | Herbicidal rating ECHORC ([1]; Rate 0.2500 kg/ha): 9.0 | Preemergence herbicidal rating SETVI (SETVI (Foxtail, Green); rate 0.0156 kg/ha): 0.0 | Preemergence herbicidal rating SETVI (SETVI (Foxtail, Green); rate 0.0313 kg/ha): 6.0 | Preemergence herbicidal rating SETVI (SETVI (Foxtail, Green); rate 0.0625 kg/ha): 7.0 | Preemergence herbicidal rating SETVI (SETVI (Foxtail, Green); rate 0.1250 kg/ha): 9.0 | Preemergence herbicidal rating SETVI (SETVI (Foxtail, Green); rate 0.2500 kg/ha): 9.0 | Preemergence herbicidal rating ECHCG (ECHCG (Barnyardgrass); rate 0.0156 kg/ha): 0.0 | Preemergence herbicidal rating ECHCG (ECHCG (Barnyardgrass); rate 0.0313 kg/ha): 0.0 | Preemergence herbicidal rating ECHCG (ECHCG (Barnyardgrass); rate 0.0625 kg/ha): 1.0 | Preemergence herbicidal rating ECHCG (ECHCG (Barnyardgrass); rate 0.1250 kg/ha): 7.0 | Preemergence herbicidal rating ECHCG (ECHCG (Barnyardgrass); rate 0.2500 kg/ha): 9.0 | ECHORC herbicidal effect rating ([2]; 0.0313 kg/ha): 4.0 | ECHORC herbicidal effect rating ([2]; 0.0625 kg/ha): 7.0 | ECHORC herbicidal effect rating ([2]; 0.1250 kg/ha): 9.0 | ECHORC herbicidal effect rating ([2]; 0.2500 kg/ha): 9.0 | TRZAWR herbicidal rating ([3]; rate 0.0158 kg/ha): 3.5 | TRZAWR herbicidal rating ([3]; rate 0.0315 kg/ha): 5.0 | TRZAWR herbicidal rating ([3]; rate 0.0630 kg/ha): 5.5 | Preemergence herbicidal rating ORYSAT (ORYSAT (Rice, Tebonnet); rate 0.0156 kg/ha): 0.0 | Preemergence herbicidal rating ORYSAT (ORYSAT (Rice, Tebonnet); rate 0.0313 kg/ha): 0.0 | Preemergence herbicidal rating ORYSAT (ORYSAT (Rice, Tebonnet); rate 0.0625 kg/ha): 3.0 | Preemergence herbicidal rating ORYSAT (ORYSAT (Rice, Tebonnet); rate 0.1250 kg/ha): 4.0 | Preemergence herbicidal rating ORYSAT (ORYSAT (Rice, Tebonnet); rate 0.2500 kg/ha): 5.0 | IPOHE herbicidal rating ([4]; rate 0.0158 kg/ha): 9.0 | IPOHE herbicidal rating ([4]; rate 0.0315 kg/ha): 9.0 | IPOHE herbicidal rating ([4]; rate 0.0630 kg/ha): 9.0 | Herbicidal rating CYPIR (CYPIR (Rice Flatsedge); Rate 0.0313 kg/ha): 0.0 | Herbicidal rating CYPIR (CYPIR (Rice Flatsedge); Rate 0.0625 kg/ha): 0.0 | Herbicidal rating CYPIR (CYPIR (Rice Flatsedge); Rate 0.1250 kg/ha): 0.0 | Herbicidal rating CYPIR (CYPIR (Rice Flatsedge); Rate 0.2500 kg/ha): 6.0 | ABUTH herbicidal rating (ABUTH (Velvetleaf); rate 0.0158 kg/ha): 9.0 | ABUTH herbicidal rating (ABUTH (Velvetleaf); rate 0.0315 kg/ha): 9.0 | ABUTH herbicidal rating (ABUTH (Velvetleaf); rate 0.0630 kg/ha): 9.0 | Preemergence herbicidal rating CHEAL ([5]; rate 0.0156 kg/ha): 9.0 | Preemergence herbicidal rating CHEAL ([5]; rate 0.0313 kg/ha): 9.0 | Preemergence herbicidal rating CHEAL ([5]; rate 0.0625 kg/ha): 9.0 | Preemergence herbicidal rating CHEAL ([5]; rate 0.1250 kg/ha): 9.0 | Preemergence herbicidal rating CHEAL ([5]; rate 0.2500 kg/ha): 9.0 | Preemergence herbicidal rating TRZAWR ([6]; rate 0.0156 kg/ha): 0.0 | Preemergence herbicidal rating TRZAWR ([6]; rate 0.0313 kg/ha): 0.0 | Preemergence herbicidal rating TRZAWR ([6]; rate 0.0625 kg/ha): 3.0 | Preemergence herbicidal rating TRZAWR ([6]; rate 0.1250 kg/ha): 7.0 | Preemergence herbicidal rating TRZAWR ([6]; rate 0.2500 kg/ha): 9.0 | Preemergence herbicidal rating IPOHE ([7]; rate 0.0156 kg/ha): 0.0 | Preemergence herbicidal rating IPOHE ([7]; rate 0.0313 kg/ha): 0.0 | Preemergence herbicidal rating IPOHE ([7]; rate 0.0625 kg/ha): 0.0 | Preemergence herbicidal rating IPOHE ([7]; rate 0.1250 kg/ha): 9.0 | Preemergence herbicidal rating IPOHE ([7]; rate 0.2500 kg/ha): 9.0

From patent US20020137929A1, “1 - (3-heterocyclylphenyl) isothiourea, -isourea, -guanidine and -amidine herbicidal agents” (Intellectual Property Department, BASF Aktiengesellschaft, priority 1998, published 2002)
